Measurements taken from patent US20100160445A1, “Synergistic Mixtures of OPP and DGH” (priority 2002, published 2010).
Where a name gives a salt, the structure may show the parent alone.

Test system: wild strain bacteria isolated from previously contaminated systems
Test: In-Can Preservation Test of paint samples; as to Microbial growth, 1st Inoculation, 1st sub-column: key: 4 = Heavy Microbial Growth; 3 = Moderate Microbial Growth; 2 = Slight Microbial Growth; 1 = Trace Microbial Growth; 0 = No Microbial Growth; as to Microbial growth, 1st Inoculation, 2nd sub-column: key: 4 = Heavy Microbial Growth; 3 = Moderate Microbial Growth; 2 = Slight Microbial Growth; 1 = Trace Microbial Growth; 0 = No Microbial Growth; as to Microbial growth, 2nd Inoculation, 1st sub-column: key: 4 = Heavy Microbial Growth; 3 = Moderate Microbial Growth; 2 = Slight Microbial Growth; 1 = Trace Microbial Growth; 0 = No Microbial Growth; as to Microbial growth, 2nd Inoculation, 2nd sub-column: key: 4 = Heavy Microbial Growth; 3 = Moderate Microbial Growth; 2 = Slight Microbial Growth; 1 = Trace Microbial Growth; 0 = No Microbial Growth
Assay type: cell-based
Conditions: for Effective Preservative (ppm): two inoculation challenge
Description: Preservation Testing was performed on the three paint samples: Acrylic Flat, Acrylic and Vinyl Acrylic. Each sample was treated with various levels OPP, DGH individually and a mixture of OPP and DGH. All samples were then inoculated with wild strain bacteria isolated from previously contaminated systems. Following the initial inoculation, the samples were reinoculated on day 7. This testing scenario best simulates what happens in a “real world” situation. […]

[1] = Table 2 paint (Acrylic Flat / Vinyl Acrylic Flat), 250 ppm
[2] = Table 2 paint (Acrylic Flat / Vinyl Acrylic Flat), 500 ppm
[3] = Table 2 paint (Acrylic Flat / Vinyl Acrylic Flat), 750 ppm
[4] = Table 2 paint (Acrylic Flat / Vinyl Acrylic Flat), 1000 ppm
[5] = Table 2 paint (Acrylic Flat / Vinyl Acrylic Flat), 1500 ppm
[6] = Table 2 paint (Acrylic Flat / Vinyl Acrylic Flat), 2000 ppm
[7] = Table 3 paint (Vinyl Acrylic Flat / Acrylic Flat), 250 ppm
[8] = Table 3 paint (Vinyl Acrylic Flat / Acrylic Flat), 500 ppm
[9] = Table 3 paint (Vinyl Acrylic Flat / Acrylic Flat), 750 ppm
[10] = Table 3 paint (Vinyl Acrylic Flat / Acrylic Flat), 1000 ppm
[11] = Table 3 paint (Vinyl Acrylic Flat / Acrylic Flat), 1500 ppm
[12] = Table 3 paint (Vinyl Acrylic Flat / Acrylic Flat), 2000 ppm

In the case of `CCCCCCCCCCCCNC(=N)N` [DGH, Dodecylguanidine Hydrochloride], the “Effective Preservative (ppm)” value (Acrylic Flat paint) is reported as 1500 ppm, the “Microbial growth, 1st Inoculation, 1st sub-column” value (Acrylic paint, 250 ppm) is reported as 3 and the “Microbial growth, 1st Inoculation, 2nd sub-column” value (Acrylic paint, 250 ppm) is reported as 3. The “Microbial growth, 2nd Inoculation, 1st sub-column” value (Acrylic paint, 250 ppm) was 3, the “Microbial growth, 2nd Inoculation, 2nd sub-column” value (Acrylic paint, 250 ppm) was 3 and the “Microbial growth, 1st Inoculation, 1st sub-column” value (Acrylic paint, 500 ppm) was 3. For the same molecule, the “Microbial growth, 1st Inoculation, 2nd sub-column” value (Acrylic paint, 500 ppm) was 3, the “Microbial growth, 2nd Inoculation, 1st sub-column” value (Acrylic paint, 500 ppm) was 2 and the “Microbial growth, 2nd Inoculation, 2nd sub-column” value (Acrylic paint, 500 ppm) was 3. The “Microbial growth, 1st Inoculation, 1st sub-column” value (Acrylic paint, 750 ppm) was 3, the “Microbial growth, 1st Inoculation, 2nd sub-column” value (Acrylic paint, 750 ppm) was 2 and the “Microbial growth, 2nd Inoculation, 1st sub-column” value (Acrylic paint, 750 ppm) was 2. For the same molecule, the “Microbial growth, 2nd Inoculation, 2nd sub-column” value (Acrylic paint, 750 ppm) was 2, the “Microbial growth, 1st Inoculation, 1st sub-column” value (Acrylic paint, 1000 ppm) was 3 and the “Microbial growth, 1st Inoculation, 2nd sub-column” value (Acrylic paint, 1000 ppm) was 2. The “Microbial growth, 2nd Inoculation, 1st sub-column” value (Acrylic paint, 1000 ppm) was 1, the “Microbial growth, 2nd Inoculation, 2nd sub-column” value (Acrylic paint, 1000 ppm) was 1 and the “Microbial growth, 1st Inoculation, 1st sub-column” value (Acrylic paint, 1500 ppm) was 3. For the same molecule, the “Microbial growth, 1st Inoculation, 2nd sub-column” value (Acrylic paint, 1500 ppm) was 0, the “Microbial growth, 2nd Inoculation, 1st sub-column” value (Acrylic paint, 1500 ppm) was 1 and the “Microbial growth, 2nd Inoculation, 2nd sub-column” value (Acrylic paint, 1500 ppm) was 0. For the same molecule, the “Microbial growth, 1st Inoculation, 1st sub-column” value (Acrylic paint, 2000 ppm) was 3, the “Microbial growth, 1st Inoculation, 2nd sub-column” value (Acrylic paint, 2000 ppm) was 0 and the “Microbial growth, 2nd Inoculation, 1st sub-column” value (Acrylic paint, 2000 ppm) was 1. For the same molecule, the “Microbial growth, 2nd Inoculation, 2nd sub-column” value (Acrylic paint, 2000 ppm) was 0, the “Effective Preservative (ppm)” value (Acrylic paint) was 2000 ppm and the “Microbial growth, 1st Inoculation, 1st sub-column” value [1] was 3. For the same molecule, the “Microbial growth, 1st Inoculation, 2nd sub-column” value [1] was 2, the “Microbial growth, 2nd Inoculation, 1st sub-column” value [1] was 3 and the “Microbial growth, 2nd Inoculation, 2nd sub-column” value [1] was 2. For the same molecule, the “Microbial growth, 1st Inoculation, 1st sub-column” value [2] was 3, the “Microbial growth, 1st Inoculation, 2nd sub-column” value [2] was 2 and the “Microbial growth, 2nd Inoculation, 1st sub-column” value [2] was 2. The “Microbial growth, 2nd Inoculation, 2nd sub-column” value [2] was 2, the “Microbial growth, 1st Inoculation, 1st sub-column” value [3] was 3 and the “Microbial growth, 1st Inoculation, 2nd sub-column” value [3] was 2. The “Microbial growth, 2nd Inoculation, 1st sub-column” value [3] was 2, the “Microbial growth, 2nd Inoculation, 2nd sub-column” value [3] was 2 and the “Microbial growth, 1st Inoculation, 1st sub-column” value [4] was 3. For the same molecule, the “Microbial growth, 1st Inoculation, 2nd sub-column” value [4] was 2, the “Microbial growth, 2nd Inoculation, 1st sub-column” value [4] was 3 and the “Microbial growth, 2nd Inoculation, 2nd sub-column” value [4] was 2. For the same molecule, the “Microbial growth, 1st Inoculation, 1st sub-column” value [5] was 3, the “Microbial growth, 1st Inoculation, 2nd sub-column” value [5] was 2 and the “Microbial growth, 2nd Inoculation, 1st sub-column” value [5] was 3. For the same molecule, the “Microbial growth, 2nd Inoculation, 2nd sub-column” value [5] was 1, the “Microbial growth, 1st Inoculation, 1st sub-column” value [6] was 3 and the “Microbial growth, 1st Inoculation, 2nd sub-column” value [6] was 0. For the same molecule, the “Microbial growth, 2nd Inoculation, 1st sub-column” value [6] was 1, the “Microbial growth, 2nd Inoculation, 2nd sub-column” value [6] was 0 and the “Microbial growth, 1st Inoculation, 1st sub-column” value [7] was 3. The “Microbial growth, 1st Inoculation, 2nd sub-column” value [7] was 2, the “Microbial growth, 2nd Inoculation, 1st sub-column” value [7] was 3 and the “Microbial growth, 2nd Inoculation, 2nd sub-column” value [7] was 2. For the same molecule, the “Microbial growth, 1st Inoculation, 1st sub-column” value [8] was 2, the “Microbial growth, 1st Inoculation, 2nd sub-column” value [8] was 2 and the “Microbial growth, 2nd Inoculation, 1st sub-column” value [8] was 3. For the same molecule, the “Microbial growth, 2nd Inoculation, 2nd sub-column” value [8] was 1, the “Microbial growth, 1st Inoculation, 1st sub-column” value [9] was 2 and the “Microbial growth, 1st Inoculation, 2nd sub-column” value [9] was 2. The “Microbial growth, 2nd Inoculation, 1st sub-column” value [9] was 3, the “Microbial growth, 2nd Inoculation, 2nd sub-column” value [9] was 1 and the “Microbial growth, 1st Inoculation, 1st sub-column” value [10] was 2. For the same molecule, the “Microbial growth, 1st Inoculation, 2nd sub-column” value [10] was 2, the “Microbial growth, 2nd Inoculation, 1st sub-column” value [10] was 3 and the “Microbial growth, 2nd Inoculation, 2nd sub-column” value [10] was 1. For the same molecule, the “Microbial growth, 1st Inoculation, 1st sub-column” value [11] was 2, the “Microbial growth, 1st Inoculation, 2nd sub-column” value [11] was 2 and the “Microbial growth, 2nd Inoculation, 1st sub-column” value [11] was 2. The “Microbial growth, 2nd Inoculation, 2nd sub-column” value [11] was 2, the “Microbial growth, 1st Inoculation, 1st sub-column” value [12] was 2 and the “Microbial growth, 1st Inoculation, 2nd sub-column” value [12] was 2. The “Microbial growth, 2nd Inoculation, 1st sub-column” value [12] was 2, the “Microbial growth, 2nd Inoculation, 2nd sub-column” value [12] was 2 and the “Effective Preservative (ppm)” value (Vinyl Acrylic Flat paint) was over 2000 ppm.
